Assay results as given in PMC3706879, “The neurotrophic compound J147 reverses cognitive impairment in aged Alzheimer's disease mice” (Alzheimer's Research & Therapy, 2013).

Tests used:
[1] = test system: BDNF; set-up: method as in PMID 21343524; conditions: rat traumatic brain injury models; cited from earlier work
[2] = test system: C57BL/6J mice; assay: Y-maze, scopolamine induced memory impairment; type: in vivo; conditions: scopolamine 1 mg/kg i.p.; J147 200 ppm, donepezil 20 ppm in food for two weeks
Method: (§1) A total of 60 male mice aged eight weeks were housed 4 per cage and were divided into five groups with 12 mice per group. Treatments were administered in the food (TestDiet® 5015, Richmond, IN, USA) for a period of two weeks before commencement of behavioral testing. […] Following two weeks of treatment, memory impairment was induced by intraperitoneal (i.p.) injection of scopolamine (1 mg/kg) 30 minutes prior to each of the following behavioral tests: Y-maze, probe trial of the water maze and contextual and cued fear conditioning. Mice were allowed to rest for two days between each behavior test. All mice received scopolamine except for one of the control groups, which received saline as a control. Mice were sacrificed 24 hours after the last behavioral test for tissue harvesting.
Spontaneous alternation, the tendency to alternate free choices in a Y-maze (three arms), is a model for studying short term working memory in mice. Mice were injected with 1 mg/kg of scopolamine or saline 30 minutes prior to testing. Then each mouse was placed in the center of the Y and arm entries were recorded by video camera and the order of entries were recorded for the first 15 entries. Spontaneous alternations are defined as consecutive triplets of different arm choices.

[3] = test system: C57BL/6J mice; assay: two-day water maze, scopolamine induced memory impairment; type: in vivo; conditions: scopolamine 1 mg/kg i.p.; J147 200 ppm, donepezil 20 ppm in food for two weeks
Method: as §1
Spatial memory was determined using the two-day water maze in 23-month-old huAPPswe/PS1 transgenic mice fed J147 at 200 ppm in food for the previous three months. The protocol was adapted from a publication by Gulinello and colleagues. Water temperature remained at 27°C throughout the experiment. […] The time it took each mouse to find the hidden platform was measured as escape latency. […] All trials were recorded using the EthoVision Software and statistics were computed using GraphPad Instat software (GraphPad Software, San Diego, CA, USA).

[4] = test system: C57BL/6J mice; assay: fear conditioning, scopolamine induced memory impairment; type: in vivo; conditions: scopolamine 1 mg/kg i.p.; J147 200 ppm, donepezil 20 ppm in food; vs scopolamine
Method: as §1
Fear conditioning to either a cue or a context represents a form of associative learning. The read-out that is measured in contextual and cued fear conditioning is a freezing response that occurs following the pairing of an unconditioned stimulus (US), such as a foot shock, with a conditioned stimulus (CS), such as a particular context or cue (tone). The mouse will freeze if it remembers and associates that environment with the aversive stimulus. The hippocampus and the amygdala are required for fear memory where the hippocampus is involved in the formation and retrieval of context fear associations and the amygdala is involved in conditioning and recall of associations to contextual and discrete cues. This assay used fear conditioning chambers from Med Associates Inc. with Video Freeze Software (Med Associates Inc, St. Albans, VT, USA). On Day 1, mice were trained by allowing them to explore the chamber for 120 sec, mice were then presented with a 30-sec tone (2 kHz with 85 dB intensity) immediately followed by a 2-sec foot shock (0.7 mA). The tone-shock pairing was repeated following a 30-sec interval and the mice were again allowed to explore for 120 sec before removing them from the chamber. On Day 2, contextual memory, which requires a functioning hippocampus, was tested by placing the mice in the chambers and allowing them to explore for the same length of time as the previous day but without the tone and the shock. On Day 3, cued or emotional memory was tested, which relies on both hippocampus and amygdala. […] On Day 2, the time spent freezing is measured over the entire time in the chamber. […] The percentage of time spent freezing by each mouse is averaged per group and then groups can be compared and P-values calculated to determine statistical significance. On Day 3, the percentage of time spent freezing during the two tones is averaged per group, and then groups can be compared and P-values calculated to determine statistical significance. […]

SMILES | BDNF levels [1] | short-term working memory (spontaneous alternations, Y maze) [2] | spatial memory (time to find hidden platform) [3] | contextual memory (freezing Day 2) [4] | cued memory (freezing in response to the tone, Day 3) [4]
COc1cc(/C=C/c2cc(/C=C/c3ccc(O)c(OC)c3)n(-c3ccccc3)n2)ccc1O [CNB-001] | increases BDNF levels |  |  |  | 
COc1cc2c(cc1OC)C(=O)C(CC1CCN(Cc3ccccc3)CC1)C2 (centres unmarked) [donepezil, reference compound] |  | improve short-term working memory | failed to rescue the deficit | did not improve memory | neither effect was significant
